From ChEMBL document CHEMBL6078724, “Discovery of the first examples of right open reading frame kinase 2 (RIOK2) molecular glue degraders” (Eur J Med Chem, 2025)
Calls of active or inactive are those of the source. The rule behind the calls is not given here.

Experiments:
[1] = molecular target: T1, E3 ubiquitin-protein ligase RNF126/Serine/threonine-protein kinase RIO2 (Homo sapiens, UniProt Q9BVS4+Q9BV68); test: Molecular glue degradation activity at RNF126/RIOK2 in human OCILY3 cells assessed as induction protein degradation by immunoblot analysis relative to control; assay type: cell-based
Target sequence in this assay (Q9BV68 2-311 partner limits assumed): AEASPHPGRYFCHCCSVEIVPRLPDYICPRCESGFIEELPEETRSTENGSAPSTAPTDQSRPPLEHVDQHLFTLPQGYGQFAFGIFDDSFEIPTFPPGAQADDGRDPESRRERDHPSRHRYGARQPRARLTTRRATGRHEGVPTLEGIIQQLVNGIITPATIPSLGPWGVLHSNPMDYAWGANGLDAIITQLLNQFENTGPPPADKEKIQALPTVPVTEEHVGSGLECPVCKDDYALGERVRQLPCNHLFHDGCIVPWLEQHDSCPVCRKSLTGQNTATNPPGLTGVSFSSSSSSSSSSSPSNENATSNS
Target sequence in this assay (Q9BVS4 whole entry): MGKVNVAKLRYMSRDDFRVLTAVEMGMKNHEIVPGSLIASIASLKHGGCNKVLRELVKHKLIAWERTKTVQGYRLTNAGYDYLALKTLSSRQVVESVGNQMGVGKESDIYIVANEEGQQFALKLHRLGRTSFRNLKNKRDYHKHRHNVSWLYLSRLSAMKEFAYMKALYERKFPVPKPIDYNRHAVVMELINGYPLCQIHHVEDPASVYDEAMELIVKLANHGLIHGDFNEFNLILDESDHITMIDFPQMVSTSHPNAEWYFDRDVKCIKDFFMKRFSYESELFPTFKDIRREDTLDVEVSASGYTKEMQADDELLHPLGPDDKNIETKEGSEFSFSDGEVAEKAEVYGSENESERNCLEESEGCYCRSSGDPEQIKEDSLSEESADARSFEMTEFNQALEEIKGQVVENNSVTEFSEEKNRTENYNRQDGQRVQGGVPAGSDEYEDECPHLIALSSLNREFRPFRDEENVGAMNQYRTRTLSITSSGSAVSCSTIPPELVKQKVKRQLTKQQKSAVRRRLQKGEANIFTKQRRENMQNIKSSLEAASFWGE

[2] = molecular target: T1, E3 ubiquitin-protein ligase RNF126/Serine/threonine-protein kinase RIO2; test: Molecular glue degradation activity at RNF126/RIOK2 in human HeLa cells assessed as induction protein degradation by immunoblot analysis relative to control; assay type: cell-based
Target sequence in this assay (Q9BV68 2-311 partner limits assumed): as the sequence (Q9BV68 2-311 partner limits assumed) above
Target sequence in this assay (Q9BVS4 whole entry): as the sequence (Q9BVS4 whole entry) above

[3] = molecular target: T1, E3 ubiquitin-protein ligase RNF126/Serine/threonine-protein kinase RIO2; test: Molecular glue degradation activity at RNF126/RIOK2 in human U-937 cells assessed as induction protein degradation by immunoblot analysis relative to control; assay type: cell-based
Target sequence in this assay (Q9BV68 2-311 partner limits assumed): as the sequence (Q9BV68 2-311 partner limits assumed) above
Target sequence in this assay (Q9BVS4 whole entry): as the sequence (Q9BVS4 whole entry) above

[4] = molecular target: T1, E3 ubiquitin-protein ligase RNF126/Serine/threonine-protein kinase RIO2; test: Molecular glue degradation activity at RNF126/RIOK2 in human A549 cells assessed as induction protein degradation by immunoblot analysis; assay type: cell-based
Target sequence in this assay (Q9BVS4 whole entry): as above
Target sequence in this assay (Q9BV68 whole entry): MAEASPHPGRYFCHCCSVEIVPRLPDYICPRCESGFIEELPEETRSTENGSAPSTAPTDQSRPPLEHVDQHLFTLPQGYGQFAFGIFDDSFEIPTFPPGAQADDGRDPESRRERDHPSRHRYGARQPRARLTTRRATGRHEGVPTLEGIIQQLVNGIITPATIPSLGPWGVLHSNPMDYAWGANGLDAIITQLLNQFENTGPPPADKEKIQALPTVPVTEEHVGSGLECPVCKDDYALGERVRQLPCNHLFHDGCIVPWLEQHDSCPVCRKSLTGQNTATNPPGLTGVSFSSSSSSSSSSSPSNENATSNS

[5] = test system: HeLa; test: Antiproliferative activity against human HeLa cells incubated for 72 hrs by CCK8 assay; assay type: functional, cell-based
[6] = molecular target: T1, E3 ubiquitin-protein ligase RNF126/Serine/threonine-protein kinase RIO2; test: Molecular glue degradation activity at RNF126/RIOK2 in human MOLT-4 cells assessed as induction protein degradation at 1 uM incubated for 24 hrs by immunoblot analysis relative to control; assay type: cell-based
Target sequence in this assay (Q9BV68 2-311 partner limits assumed): as the sequence (Q9BV68 2-311 partner limits assumed) above
Target sequence in this assay (Q9BVS4 whole entry): as the sequence (Q9BVS4 whole entry) above

[7] = Antiproliferative activity against HEK293 cells incubated for 72 hrs by CCK8 assay; assay type: toxicity, cell-based; settings: human
[8] = test system: MOLT-4; test: Induction of apoptosis in human MOLT-4 cells assessed as decrease in PARP level by Western blot analysis; assay type: functional, cell-based; settings: dose <= 900.0 nM
[9] = molecular target: T1, E3 ubiquitin-protein ligase RNF126/Serine/threonine-protein kinase RIO2; test: Molecular glue degradation activity at RNF126/RIOK2 in JP-2-196-treated human MOLT-4 cells assessed as induction protein degradation at 1 uM incubated for 12 hrs by immunoblot analysis; assay type: cell-based
Target sequence in this assay (Q9BV68 2-311 partner limits assumed): as the sequence (Q9BV68 2-311 partner limits assumed) above
Target sequence in this assay (Q9BVS4 whole entry): as the sequence (Q9BVS4 whole entry) above

[10] = test system: A549; test: Antiproliferative activity against human A549 cells incubated for 72 hrs by CCK8 assay; assay type: functional, cell-based; settings: A549, 72 h
[11] = Half life in Sprague-Dawley rat at 5 mg/kg, iv measured for 24 hrs; assay type: ADME, organism-based; settings: in vivo
[12] = Antiproliferative activity against mouse NIH3T3 cells incubated for 72 hrs by CCK8 assay; assay type: toxicity, cell-based
[13] = Toxicity in SCID-CB17 mouse xenografted with human MOLT-4 cells assessed as body weight loss at 10 mg/kg, ip for 18 days; assay type: organism-based; settings: in vivo, 432 h, time 18 day
[14] = molecular target: T1, E3 ubiquitin-protein ligase RNF126/Serine/threonine-protein kinase RIO2; test: Molecular glue degradation activity at RNF126/RIOK2 in MLN4924-treated human MOLT-4 cells assessed as induction protein degradation at 1 uM incubated for 12 hrs by immunoblot analysis; assay type: cell-based
Target sequence in this assay (Q9BV68 2-311 partner limits assumed): as the sequence (Q9BV68 2-311 partner limits assumed) above
Target sequence in this assay (Q9BVS4 whole entry): as the sequence (Q9BVS4 whole entry) above

[15] = molecular target: T1, E3 ubiquitin-protein ligase RNF126/Serine/threonine-protein kinase RIO2; test: Molecular glue degradation activity at RNF126/RIOK2 in human MOLT-4 cells assessed as decrease in mTOR level at 500 nM incubated for 12 hrs by immunoblot analysis; assay type: cell-based
[16] = molecular target: T1, E3 ubiquitin-protein ligase RNF126/Serine/threonine-protein kinase RIO2; test: Molecular glue degradation activity at RNF126/RIOK2 in human OCILY3 cells assessed as induction protein degradation by immunoblot analysis; assay type: cell-based
Target sequence in this assay (Q9BVS4 whole entry): as above
Target sequence in this assay (Q9BV68 whole entry): as the sequence (Q9BV68 whole entry) above

[17] = test system: HL-60; test: Antiproliferative activity against human HL-60 cells incubated for 72 hrs by CCK8 assay; assay type: functional, cell-based; settings: HL-60, 72 h
[18] = molecular target: T1, E3 ubiquitin-protein ligase RNF126/Serine/threonine-protein kinase RIO2; test: Molecular glue degradation activity at RNF126/RIOK2 in human K562 cells assessed as induction protein degradation by immunoblot analysis; assay type: cell-based
Target sequence in this assay (Q9BVS4 whole entry): as the sequence (Q9BVS4 whole entry) above
Target sequence in this assay (Q9BV68 whole entry): as the sequence (Q9BV68 whole entry) above

[19] = test system: OCI-Ly3; test: Antiproliferative activity against human OCILY3 cells incubated for 72 hrs by CCK8 assay; assay type: functional, cell-based; settings: OCI-Ly3, 72 h
[20] = test system: MOLT-4; test: Induction of cell cycle arrest in human MOLT-4 cells assessed as decrease in cyclin B1 level by Western blot analysis; assay type: functional, cell-based; settings: dose <= 900.0 nM
[21] = test system: K562; test: Antiproliferative activity against human K562 cells incubated for 72 hrs by CCK8 assay; assay type: functional, cell-based; settings: K562, 72 h
[22] = molecular target: T1, E3 ubiquitin-protein ligase RNF126/Serine/threonine-protein kinase RIO2; test: Molecular glue degradation activity at RNF126/RIOK2 in human MOLT-4 cells assessed as increase in ubiquitination of RIOK2 at 1 uM incubated for 10 hrs by immunoblot analysis; assay type: cell-based
[23] = molecular target: T1, E3 ubiquitin-protein ligase RNF126/Serine/threonine-protein kinase RIO2; test: Molecular glue degradation activity at RNF126/RIOK2 in CHX-treated human MOLT-4 cells assessed as half life of RIOK2 at 2 uM by immunoblot analysis (reference value: 12.5 hrs); assay type: cell-based
[24] = Oral bioavailability in Sprague-Dawley rat at 10 mg/kg measured for 24 hrs; assay type: ADME, organism-based; settings: in vivo
[25] = test system: Mus musculus; test: In vivo molecular glue degradation activity at RNF126/RIOK2 in SCID-CB17 mouse xenografted with human MOLT-4 cells assessed as induction of RIOK2 degradation in tumor at 10 mg/kg, ip for 18 days measured after 4 hrs post-last dose; assay type: functional, organism-based; settings: time 436.0 hrs
[26] = test system: MOLT-4; test: Induction of cell cycle arrest in human MOLT-4 cells assessed as decrease in CDK2 level by Western blot analysis; assay type: functional, cell-based; settings: dose <= 900.0 nM
[27] = Antiproliferative activity against human MRC5 cells incubated for 72 hrs by CCK8 assay; assay type: toxicity, cell-based
[28] = molecular target: T1, E3 ubiquitin-protein ligase RNF126/Serine/threonine-protein kinase RIO2; test: Molecular glue degradation activity at RNF126/RIOK2 in human HL-60 cells assessed as induction protein degradation by immunoblot analysis; assay type: cell-based
Target sequence in this assay (Q9BVS4 whole entry): as the sequence (Q9BVS4 whole entry) above
Target sequence in this assay (Q9BV68 whole entry): as the sequence (Q9BV68 whole entry) above

[29] = test system: MOLT-4; test: Antiproliferative activity against human MOLT-4 cells incubated for 72 hrs by CCK8 assay; assay type: functional, cell-based; settings: MOLT-4, 72 h
[30] = test system: MOLT-4; test: Induction of apoptosis in human MOLT-4 cells at 900 nM incubated for 48 hrs by Annexin V-FITC/PI staining based flow cytometry relative to control; assay type: functional
[31] = test system: MOLT-4; test: Induction of apoptosis in human MOLT-4 cells incubated for 48 hrs by Annexin V-FITC/PI staining based flow cytometry; assay type: functional, cell-based; settings: dose <= 900.0 nM
[32] = Cmax in Sprague-Dawley rat at 10 mg/kg, ip measured for 24 hrs; assay type: ADME, organism-based; settings: in vivo
[33] = molecular target: T1, E3 ubiquitin-protein ligase RNF126/Serine/threonine-protein kinase RIO2; test: Molecular glue degradation activity at RNF126/RIOK2 in human U-937 cells assessed as induction protein degradation by immunoblot analysis; assay type: cell-based
Target sequence in this assay (Q9BVS4 whole entry): as the sequence (Q9BVS4 whole entry) above
Target sequence in this assay (Q9BV68 whole entry): as the sequence (Q9BV68 whole entry) above

[34] = AUClast in Sprague-Dawley rat at 5 mg/kg, iv measured for 24 hrs; assay type: ADME, organism-based; settings: in vivo
[35] = AUClast in Sprague-Dawley rat at 10 mg/kg, ip measured for 24 hrs; assay type: ADME, organism-based; settings: in vivo
[36] = Clearance in Sprague-Dawley rat at 5 mg/kg, iv measured for 24 hrs; assay type: ADME, organism-based; settings: in vivo
[37] = molecular target: T1, E3 ubiquitin-protein ligase RNF126/Serine/threonine-protein kinase RIO2; test: Molecular glue degradation activity at RNF126/RIOK2 in human MOLT-4 cells assessed as decrease in AKT level at 500 nM incubated for 12 hrs by immunoblot analysis; assay type: cell-based
[38] = molecular target: Serine/threonine-protein kinase RIO2 (Homo sapiens, UniProt Q9BVS4); test: Inhibition of RIOK2 (unknown origin) ATPase activity incubated for 2 hrs in presence of ATP by ADP-Glo assay
[39] = test system: MOLT-4; test: Induction of apoptosis in human MOLT-4 cells assessed as increase in cleaved caspase-9 level by Western blot analysis; assay type: functional, cell-based; settings: dose <= 900.0 nM
[40] = molecular target: T1, E3 ubiquitin-protein ligase RNF126/Serine/threonine-protein kinase RIO2; test: Molecular glue degradation activity at RNF126/RIOK2 in human MOLT-4 cells assessed as induction protein degradation incubated for 12 hrs by immunoblot analysis; assay type: cell-based
[41] = molecular target: T1, E3 ubiquitin-protein ligase RNF126/Serine/threonine-protein kinase RIO2; test: Molecular glue degradation activity at RNF126/RIOK2 in HEK293 cells assessed as induction protein degradation by immunoblot analysis; assay type: cell-based
Target sequence in this assay (Q9BVS4 whole entry): as the sequence (Q9BVS4 whole entry) above
Target sequence in this assay (Q9BV68 whole entry): as the sequence (Q9BV68 whole entry) above

[42] = test system: MOLT-4; test: Induction of cell cycle arrest in human MOLT-4 cells assessed as accumulation at G2/M phase at 900 nM incubated for 24 hrs by PI staining based flow cytometry relative to control; assay type: functional
[43] = test system: MOLT-4; test: Induction of cell cycle arrest in human MOLT-4 cells assessed as accumulation at G2/M phase incubated for 24 hrs by PI staining based flow cytometry; assay type: functional; settings: dose <= 900.0 nM

Chain of Serine/threonine-protein kinase RIO2 (Q9BVS4 whole entry): as the sequence (Q9BVS4 whole entry) above

COc1ccc(-c2ccc3[nH]c(=O)c4nnn(-c5ccc(N6CCN(C(=O)/C=C/C(=O)c7ccc(F)cc7)CC6)c(C(F)(F)F)c5)c4c3c2)cn1
Emax [1]: 66.9%
Emax [2]: 50.3%
Emax [3]: 60.4%
DC50 [4]: > 10 µM
IC50 [5]: 580 nM
Emax [6]: 94.8%
IC50 at 72 h [7]: 1050 nM
Activity [8]: Dose-dependent-effect
Activity [9]: inactive
IC50 [10]: 1060 nM
half-life [11]: 36 min
IC50 at 72 h [12]: 1060 nM
Activity [13]: Non-toxic
Activity [14]: inactive
Activity [15]: Active
DC50 [16]: 450 nM
IC50 [17]: 340 nM
DC50 [18]: > 10 µM
IC50 [19]: 120 nM
Activity [20]: Dose-dependent-effect
IC50 [21]: 1140 nM
Activity [22]: Active
T1/2 [23]: 9.6 h
bioavailability [24]: 49.7%
Activity [25]: Active
Activity [26]: Dose-dependent-effect
IC50 at 72 h [27]: 1090 nM
DC50 [28]: 550 nM
IC50 [29]: 130 nM
Activity [30]: 57.11%
Activity [31]: Dose-dependent-effect
Cmax [32]: 90.6 ng/mL
DC50 [33]: 1300 nM
AUClast [34]: 1210 ng·h/mL
AUClast [35]: 1200 ng·h/mL
clearance [36]: 69.2 mL/min/kg
Activity [37]: Active
IC50 [38]: 98 nM
Activity [39]: Dose-dependent-effect
DC50 [40]: 410 nM
Activity ([40]; dose <= 10.0 µM): Dose-dependent-effect
DC50 [41]: > 10 µM
Activity [42]: 39.6%
Activity [43]: Dose-dependent-effect
